According to publication PMC10901292 (European journal of medicinal chemistry, 2024):

Columns and labels:
[1] = system: BT549 cells; assay: Cell viability WST-8; assay type: cell-based
[2] = system: MDA-MB-468 cells; assay: Cell viability WST-8; assay type: cell-based
[3] = target: T1, EZH2 (Homo sapiens, UniProt Q15910); assay: Western blot of EZH2 protein level in MV4; assay type: cell-based; settings: 11 cells, 24 h treatment, all tested concentrations (Fig. 8A, 8C)
Target sequence in this assay (Q15910 whole entry): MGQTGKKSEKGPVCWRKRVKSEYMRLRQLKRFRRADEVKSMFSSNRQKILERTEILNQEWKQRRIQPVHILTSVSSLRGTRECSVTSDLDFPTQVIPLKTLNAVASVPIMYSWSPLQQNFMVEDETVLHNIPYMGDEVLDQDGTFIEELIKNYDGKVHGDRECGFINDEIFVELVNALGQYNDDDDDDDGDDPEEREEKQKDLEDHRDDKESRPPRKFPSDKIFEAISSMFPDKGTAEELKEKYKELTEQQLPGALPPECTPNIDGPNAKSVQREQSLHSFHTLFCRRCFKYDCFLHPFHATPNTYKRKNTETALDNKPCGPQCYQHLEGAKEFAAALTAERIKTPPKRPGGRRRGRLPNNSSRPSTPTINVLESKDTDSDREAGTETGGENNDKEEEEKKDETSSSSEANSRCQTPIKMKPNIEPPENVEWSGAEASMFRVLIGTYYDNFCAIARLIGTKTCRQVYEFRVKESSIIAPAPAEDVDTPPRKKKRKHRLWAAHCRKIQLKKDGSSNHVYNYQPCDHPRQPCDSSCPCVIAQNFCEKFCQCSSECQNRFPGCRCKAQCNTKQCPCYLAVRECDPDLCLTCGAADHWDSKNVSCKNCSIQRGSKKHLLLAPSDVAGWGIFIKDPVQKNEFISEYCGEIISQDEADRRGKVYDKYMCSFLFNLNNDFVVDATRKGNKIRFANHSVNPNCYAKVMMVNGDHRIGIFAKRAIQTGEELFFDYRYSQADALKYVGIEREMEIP
Target sequence in this assay (O75530 2-441 partner limits assumed): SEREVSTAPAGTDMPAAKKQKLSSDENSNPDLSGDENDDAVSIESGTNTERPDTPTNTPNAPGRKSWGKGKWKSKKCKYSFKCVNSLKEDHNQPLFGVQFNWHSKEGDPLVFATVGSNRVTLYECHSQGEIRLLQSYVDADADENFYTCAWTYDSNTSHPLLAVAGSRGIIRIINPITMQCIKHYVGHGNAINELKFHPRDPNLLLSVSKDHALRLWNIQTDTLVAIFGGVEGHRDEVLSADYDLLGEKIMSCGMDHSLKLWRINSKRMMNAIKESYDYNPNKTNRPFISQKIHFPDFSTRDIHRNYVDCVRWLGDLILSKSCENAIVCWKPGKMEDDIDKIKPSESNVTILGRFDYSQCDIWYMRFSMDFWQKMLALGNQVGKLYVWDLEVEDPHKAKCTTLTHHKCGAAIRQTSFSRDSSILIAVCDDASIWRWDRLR
Target sequence in this assay (Q15022 whole entry partner): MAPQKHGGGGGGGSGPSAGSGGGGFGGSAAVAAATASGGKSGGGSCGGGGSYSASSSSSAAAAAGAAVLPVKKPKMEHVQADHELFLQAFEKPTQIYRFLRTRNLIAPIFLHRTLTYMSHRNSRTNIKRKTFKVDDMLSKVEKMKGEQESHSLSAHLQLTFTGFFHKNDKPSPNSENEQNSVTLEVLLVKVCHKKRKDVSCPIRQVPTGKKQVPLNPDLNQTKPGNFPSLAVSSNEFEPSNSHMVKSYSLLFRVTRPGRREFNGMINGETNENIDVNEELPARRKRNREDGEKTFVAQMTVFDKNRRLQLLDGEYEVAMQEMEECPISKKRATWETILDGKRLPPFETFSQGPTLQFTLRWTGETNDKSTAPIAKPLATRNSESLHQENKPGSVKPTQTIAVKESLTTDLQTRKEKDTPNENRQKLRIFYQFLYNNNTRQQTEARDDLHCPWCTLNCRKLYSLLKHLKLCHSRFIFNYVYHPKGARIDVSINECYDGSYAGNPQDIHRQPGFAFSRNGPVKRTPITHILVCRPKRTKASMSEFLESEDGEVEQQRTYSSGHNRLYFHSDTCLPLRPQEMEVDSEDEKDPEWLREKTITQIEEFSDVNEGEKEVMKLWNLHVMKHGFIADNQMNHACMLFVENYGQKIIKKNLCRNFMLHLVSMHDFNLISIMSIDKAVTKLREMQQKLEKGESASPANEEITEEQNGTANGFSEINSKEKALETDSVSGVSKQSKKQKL

[4] = target: T1, EZH2; assay: Western blot of EZH2 protein level in BT549 cells; assay type: cell-based; settings: 48 h treatment
Target sequence in this assay (Q15910 whole entry): as the sequence (Q15910 whole entry) above
Target sequence in this assay (O75530 2-441 partner limits assumed): as the sequence (O75530 2-441 partner limits assumed) above
Target sequence in this assay (Q15022 whole entry partner): as the sequence (Q15022 whole entry partner) above

[5] = target: T1, EZH2; assay: Western blot of EZH2 protein level in EOL-1 cells; assay type: cell-based; settings: for EZH2 degradation (EZH2 protein level): 24 h treatment
Target sequence in this assay (Q15910 whole entry): as the sequence (Q15910 whole entry) above
Target sequence in this assay (O75530 2-441 partner limits assumed): as the sequence (O75530 2-441 partner limits assumed) above
Target sequence in this assay (Q15022 whole entry partner): as the sequence (Q15022 whole entry partner) above

[6] = target: T2, EZH1 (Homo sapiens, UniProt Q92800); assay: Western blot of EZH1 degradation; assay type: cell-based; settings: Fig. S3
Target sequence in this assay (Q92800 whole entry): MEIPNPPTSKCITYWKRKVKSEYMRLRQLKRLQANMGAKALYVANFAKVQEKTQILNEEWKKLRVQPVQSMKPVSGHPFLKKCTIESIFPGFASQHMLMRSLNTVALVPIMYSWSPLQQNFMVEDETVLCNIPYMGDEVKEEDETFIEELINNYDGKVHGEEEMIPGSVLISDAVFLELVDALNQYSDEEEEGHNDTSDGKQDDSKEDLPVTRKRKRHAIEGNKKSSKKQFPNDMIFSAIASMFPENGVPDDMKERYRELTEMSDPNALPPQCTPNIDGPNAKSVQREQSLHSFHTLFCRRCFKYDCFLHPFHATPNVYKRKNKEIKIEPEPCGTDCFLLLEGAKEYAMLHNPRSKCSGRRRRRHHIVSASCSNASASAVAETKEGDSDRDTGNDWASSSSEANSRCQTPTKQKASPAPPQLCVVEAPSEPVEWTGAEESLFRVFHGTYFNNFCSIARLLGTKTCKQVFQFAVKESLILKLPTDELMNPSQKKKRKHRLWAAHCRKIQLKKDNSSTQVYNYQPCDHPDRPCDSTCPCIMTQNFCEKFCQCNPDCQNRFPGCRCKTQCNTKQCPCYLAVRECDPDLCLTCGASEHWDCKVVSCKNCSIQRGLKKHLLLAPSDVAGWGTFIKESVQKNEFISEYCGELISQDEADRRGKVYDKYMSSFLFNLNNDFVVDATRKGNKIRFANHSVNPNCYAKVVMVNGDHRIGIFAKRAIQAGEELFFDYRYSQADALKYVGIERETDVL
Target sequence in this assay (O75530 2-441 partner limits assumed): as the sequence (O75530 2-441 partner limits assumed) above
Target sequence in this assay (Q15022 whole entry partner): as the sequence (Q15022 whole entry partner) above

[7] = system: H3K27me3; assay: Western blot of H3K27me3 mark in EOL-1 cells; assay type: cell-based; settings: 24 h treatment (Fig. 4A)
[8] = system: MV4; 11 cells; assay: Cell viability WST-8; assay type: cell-based
[9] = target: T2, EZH1; assay: EZH1 methyltransferase inhibition assay; assay type: biochemical; settings: Fig. S2B
[10] = target: T1, EZH2; assay: Western blot of EZH2 protein level in RS4; assay type: cell-based; settings: 11 cells, 24 h treatment, 0.1 and 0.3 μM
Target sequence in this assay (Q15910 whole entry): as the sequence (Q15910 whole entry) above
Target sequence in this assay (O75530 2-441 partner limits assumed): as the sequence (O75530 2-441 partner limits assumed) above
Target sequence in this assay (Q15022 whole entry partner): as the sequence (Q15022 whole entry partner) above

[11] = Tolerability observed in the mouse PK study; settings: mice, single IP injection 50 mg/kg
[12] = system: EED; assay: Western blot of EED in EOL-1 cells; assay type: cell-based; settings: 24 h treatment (Fig. 4B)
[13] = system: K562 cells; assay: Cell viability assay, K562; assay type: cell-based; settings: K562 cells (insensitive to EZH2 KO), Fig. S4
[14] = Mouse pharmacokinetic study
[15] = target: T1, EZH2; assay: Western blot of EZH2 protein level in MDA-MB-468 cells; assay type: cell-based; settings: 48 h treatment
Target sequence in this assay (Q15910 whole entry): as the sequence (Q15910 whole entry) above
Target sequence in this assay (O75530 2-441 partner limits assumed): as the sequence (O75530 2-441 partner limits assumed) above
Target sequence in this assay (Q15022 whole entry partner): as the sequence (Q15022 whole entry partner) above

[16] = system: EOL-1 cells; assay: Cell viability WST-8; assay type: cell-based
[17] = system: BT549 in vitro spheroids; assay: Bio-Assembler 3D in vitro spheroid TNBC model; assay type: cell-based; settings: 5 d treatment
[18] = target: T1, EZH2; assay: EZH2 methyltransferase inhibition assay; assay type: biochemical; settings: Fig. S2A
[19] = system: panel of 20 protein methyltransferases; assay: Radioactive methyltransferase selectivity panel; assay type: biochemical; settings: 10 μM, two replicates

Molecule: CCN(c1cc(-c2ccc(CN3CCOCC3)cc2)cc(C(=O)NCc2c(C)cc(C)[nH]c2=O)c1C)C1CCOCC1 [EPZ-6438, Tazemetostat]
- effect on cell growth [1]: no effect
- effect on cell growth [2]: no effect

Molecule: (2R,4S)-1-((S)-2-(11-(3-(4-((3’-(((4,6-dimethyl-2-oxo-1,2-dihydropyridin-3-yl)methyl)carbamoyl)-5’-(ethyl(tetrahydro-2H-pyran-4-yl)amino)-4′-methyl-[1,1′-biphenyl]-4-yl)methyl)piperazin-1-yl)propanamido)undecanamido)-3,3-dimethylbutanoyl)-4-hydroxy-N-(4-(4-methylthiazol-5-yl)benzyl)pyrrolidine-2-carboxamide [MS8847N2]
- EZH2 degradation [3]: did not induce EZH2 degradation

Molecule: CCN(c1cc(-c2ccc(CN3CCN(CCC(=O)NCCCCCCCCCCC(=O)N[C@H](C(=O)N4C[C@H](O)C[C@H]4C(=O)NCc4ccc(-c5scnc5C)cc4)C(C)(C)C)CC3)cc2)cc(C(=O)NCc2c(C)cc(C)[nH]c2=O)c1C)C1CCOCC1 [MS8847, (2S,4R)-1-((S)-2-(11-(3-(4-((3’-(((4,6-dimethyl-2-oxo-1,2-dihydropyridin-3-yl)methyl)carbamoyl)-5’-(ethyl(tetrahydro-2H-pyran-4-yl)amino)-4′-methyl-[1,1′-biphenyl]-4-yl)methyl)piperazin-1-yl)propanamido)undecanamido)-3,3-dimethylbutanoyl)-4-hydroxy-N-(4-(4-methylthiazol-5-yl)benzyl)pyrrolidine-2-carboxamide]
- EZH2 degradation [4]: potent EZH2 degradation
- time at which EZH2 degradation started ([5]; 300 nM): 8 h
- time to maximum EZH2 degradation ([5]; 300 nM): ≤ 24 h
- EZH2 degradation ([5]; 24 h, 0.1 and 0.3 μM, comparison of five degraders (Fig. 7A)): complete degradation
- EZH2 degradation ([5]; 24 h treatment at the indicated concentration (Fig. 4A, Fig. 6A)): effectively induced EZH2 degradation
- EZH2 degradation (EZH2 protein level) ([5]; 0.1 μM (Fig. 3)): complete EZH2 degradation
- EZH2 degradation (EZH2 protein level) ([5]; 1 μM (Fig. 3)): complete EZH2 degradation
- EZH1 degradation [6]: does not degrade
- reduction of the H3K27me3 mark [7]: reduced the H3K27me3 mark
- fold more potent than U3i (cell growth IC50) [8]: over 2 fold
- inhibition of the enzymatic activity of EZH1 [9]: inhibits
- EZH2 degradation [10]: induced EZH2 degradation
- clinical signs of toxicity [11]: did not exhibit obvious clinical signs of toxicity
- EED degradation [12]: potently degraded
- cell growth inhibition [13]: did not inhibit cell growth
- time at which Cmax was observed ([14]; male Swiss albino mice, single IP injection 50 mg/kg, HCl form): 4 h
- concentration at 9 h ([14]; male, Swiss Albino, mouse, plasma, ip, 50 mg/kg): > 1000 nM
- EZH2 degradation [15]: potent EZH2 degradation
- fold more potent than MS8815 (anti-proliferative IC50) [16]: more than 3 fold
- cell viability of BT549 cells in spheroids (Cell Titer Glo 3D) [17]: significantly reduced
- size of BT549 in vitro spheroids ([17]; compared to DMSO-treated control tumors): significantly reduced
- inhibition of the enzymatic activity of EZH2 [18]: inhibits
- inhibition of any of the 20 methyltransferases [19]: ≤ 50%
- EZH2 degradation [3]: near-complete degradation

Molecule: CCN(c1cc(-c2ccc(CN3CCN(CCC(=O)NCCCCCCCCCCC(=O)N[C@H](C(=O)N4C[C@H](O)C[C@H]4C(=O)NCc4ccc(-c5scnc5C)cc4)C(C)(C)C)CC3)cc2)cc(C(=O)N(C)Cc2c(C)cc(C)n(C)c2=O)c1C)C1CCOCC1 [MS8847N1, (2S,4R)-1-((S)-2-(11-(3-(4-((3’-(ethyl(tetrahydro-2H-pyran-4-yl)amino)-4′-methyl-5’-(methyl((1,4,6-trimethyl-2-oxo-1,2-dihydropyridin-3-yl)methyl)carbamoyl)-[1,1′-biphenyl]-4-yl)methyl)piperazin-1-yl)propanamido)undecanamido)-3,3-dimethylbutanoyl)-4-hydroxy-N-(4-(4-methylthiazol-5-yl)benzyl)pyrrolidine-2-carboxamide]
- EZH2 degradation [3]: did not induce EZH2 degradation

Molecule: CCN(c1cc(-c2ccc(CN3CCN(CCC(=O)NCCCCCCCCCC(=O)N[C@H](C(=O)N4C[C@H](O)C[C@H]4C(=O)NCc4ccc(-c5scnc5C)cc4)C(C)(C)C)CC3)cc2)cc(C(=O)NCc2c(C)cc(C)[nH]c2=O)c1C)C1CCOCC1 [Compound 7, (2S,4R)-1-((S)-2-(10-(3-(4-((3’-(((4,6-dimethyl-2-oxo-1,2-dihydropyridin-3-yl)methyl)carbamoyl)-5’-(ethyl(tetrahydro-2H-pyran-4-yl)amino)-4′-methyl-[1,1′-biphenyl]-4-yl)methyl)piperazin-1-yl)propanamido)decanamido)-3,3-dimethylbutanoyl)-4-hydroxy-N-(4-(4-methylthiazol-5-yl)benzyl)pyrrolidine-2-carboxamide]
- EZH2 degradation (EZH2 protein level) ([5]; 0.1 μM (Fig. 3)): reduced the EZH2 protein level completely
- EZH2 degradation (EZH2 protein level) ([5]; 1 μM (Fig. 3)): less profoundly

Molecule: CCN(c1cc(-c2ccc(CN3CCN(CCC(=O)NCCCCCCCC(=O)N[C@H](C(=O)N4C[C@H](O)C[C@H]4C(=O)NCc4ccc(-c5scnc5C)cc4)C(C)(C)C)CC3)cc2)cc(C(=O)NCc2c(C)cc(C)[nH]c2=O)c1C)C1CCOCC1 [Compound 5, (2S,4R)-1-((S)-2-(8-(3-(4-((3’-(((4,6-dimethyl-2-oxo-1,2-dihydropyridin-3-yl)methyl)carbamoyl)-5’-(ethyl(tetrahydro-2H-pyran-4-yl)amino)-4′-methyl-[1,1′-biphenyl]-4-yl)methyl)piperazin-1-yl)propanamido)octanamido)-3,3-dimethylbutanoyl)-4-hydroxy-N-(4-(4-methylthiazol-5-yl)benzyl)pyrrolidine-2-carboxamide]
- EZH2 degradation (EZH2 protein level) ([5]; SAR study (Fig. 3)): partial degradation

Molecule: CCN(c1cc(-c2ccc(CN3CCN(CCC(=O)NCCCCCCCCC(=O)N[C@H](C(=O)N4C[C@H](O)C[C@H]4C(=O)NCc4ccc(-c5scnc5C)cc4)C(C)(C)C)CC3)cc2)cc(C(=O)NCc2c(C)cc(C)[nH]c2=O)c1C)C1CCOCC1 [Compound 6, (2S,4R)-1-((S)-2-(9-(3-(4-((3’-(((4,6-dimethyl-2-oxo-1,2-dihydropyridin-3-yl)methyl)carbamoyl)-5’-(ethyl(tetrahydro-2H-pyran-4-yl)amino)-4′-methyl-[1,1′-biphenyl]-4-yl)methyl)piperazin-1-yl)propanamido)nonanamido)-3,3-dimethylbutanoyl)-4-hydroxy-N-(4-(4-methylthiazol-5-yl)benzyl)pyrrolidine-2-carboxamide]
- EZH2 degradation (EZH2 protein level) ([5]; SAR study (Fig. 3)): partial degradation
